Assay results as given in patent US5216005A, “Immunosuppressive analogues and derivatives of succinylacetone” (priority 1990, dated 1993).

Tested on: adjuvant induced arthritis
Test: adjuvant induced arthritis in rats, overall arthritis score; intraarticular right paw, per kg: succinylacetone 325 μg, methyl ester 150 μg, 4-acetyl-5-oxohexanoate 560 μg
Assay type: in vivo, rat

CC(=O)CC(=O)CCC(=O)O [Succinylacetone, 4,6-dioxoheptanoic acid]
overall arthritis score (Exp. I (treated from same day), day 14): 0.6 ± 1.3
overall arthritis score (Exp. I (treated from same day), day 16): 0.8 ± 1.8
overall arthritis score (Exp. I (treated from same day), day 18): 1.4 ± 2.6
overall arthritis score (Exp. I (treated from same day), day 20): 3 ± 5
overall arthritis score (Exp. I (treated from same day), day 22): 3.8 ± 5
overall arthritis score (Exp. I (treated from same day), day 24): 4 ± 3.9
overall arthritis score (Exp. I (treated from same day), day 26): 5 ± 4.3
overall arthritis score (Exp. II (treated from day 4), day 14): 3.2 ± 3.8
overall arthritis score (Exp. II (treated from day 4), day 16): 3.2 ± 3.8
overall arthritis score (Exp. II (treated from day 4), day 18): 4.8 ± 3.6
overall arthritis score (Exp. II (treated from day 4), day 20): 7 ± 2.3
overall arthritis score (Exp. II (treated from day 4), day 22): 6.2 ± 2.4
overall arthritis score (Exp. II (treated from day 4), day 24): 6 ± 2.7
overall arthritis score (Exp. II (treated from day 4), day 26): 7.8 ± 3
overall arthritis score (Exp. III (treated from day 14), day 14): 2.0 ± 3.9
overall arthritis score (Exp. III (treated from day 14), day 16): 2.0 ± 3.9
overall arthritis score (Exp. III (treated from day 14), day 18): 2.0 ± 2.9
overall arthritis score (Exp. III (treated from day 14), day 20): 2.4 ± 2.9
overall arthritis score (Exp. III (treated from day 14), day 22): 4.0 ± 3.7
overall arthritis score (Exp. III (treated from day 14), day 24): 2.8 ± 2.8
overall arthritis score (Exp. III (treated from day 14), day 26): 3.4 ± 2.7
effect on arthritis (comparison of treatment schedules, in words): also effective when administered 14 days subsequent to injection
